Data reported in patent publication US8906826B2, “Herbicidal compositions comprising 4-amino-3-chloro-5-fluoro-6-(4-chloro-2-fluoro-3-methoxyphenyl) pyridine-2-carboxylic acid or a derivative thereof and imidazolinones” (Dow AgroSciences, LLC, priority 2012, dated 2014).

Tests used:
IPOHE = experiment: Postemergence foliar-applied, direct seeded rice weeds (Example I); type: in vivo, Ipomoea hederacea Jacq.
Source text: (§1) Seeds or nutlets of the desired test plant species were planted in a soil matrix prepared by mixing a loam or sandy loam soil (e.g., 28.6 percent silt, 18.8 percent clay, and 52.6 percent sand, with a pH of about 5.8 and an organic matter content of about 1.8 percent) and calcareous grit in an 80 to 20 ratio. The soil matrix was contained in plastic pots with a volume of 1 quart and a surface area of 83.6 cm^2. When required to ensure good germination and healthy plants, a fungicide treatment and/or other chemical or physical treatment was applied. The plants were grown for 8-22 days in a greenhouse with an approximate 14 h photoperiod which was maintained at about 29° C. during the day and 26° C. during the night. Nutrients (Peters Excel® 15-5-15 5-Ca 2-Mg and iron chelate) were applied in the irrigation solution as needed and water was added on a regular basis. Supplemental lighting was provided with overhead metal halide 1000-Watt lamps as necessary. The plants were employed for testing when they reached the first through fourth true leaf stage.
(§2) Treatments consisted of the acid or esters of 4-amino-3-chloro-5-fluoro-6-(4-chloro-2-fluoro-3-methoxy-phenyl)pyridine-2-carboxylic acid (Compound A), each formulated as an SC (suspension concentrate), and various herbicidal components alone and in combination. Forms of compound A were applied on an acid equivalent basis.
(§3) Other herbicidal components were applied on an acid equivalent basis and include acetolactate synthase (ALS)-inhibiting herbicides (imidazolinone chemical class) imazethapyr ammonium salt formulated as Newpath®, imazamox ammonium salt formulated as Beyond®, imazapic ammonium salt formulated as Plateau®, imazapyr isopropylamine salt formulated as Arsenal®, imazamethabenz-methyl (technical material) and imazaquin isopropylamine salt formulated as Scepter®/Imagine®.
(§4) Treatment requirements were calculated based upon the rates being tested, the concentration of active ingredient or acid equivalent in the formulation, and a 12 mL application volume at a rate of 187 L/ha.
(§5) For treatments comprised of formulated compounds, measured amounts of compounds were placed individually in 25 mL glass vials and diluted in a volume of 1.25% (v/v) Agri-Dex® crop oil concentrated to obtain 12× stock solutions. […] Application solutions were prepared by adding an appropriate amount of each stock solution (e.g., 1 mL) and diluted to the appropriate final concentrations with the addition of 10 mL of an aqueous mixture of 1.25% (v/v) crop oil concentrate so that the final spray solutions contained 1.25+/−0.05% (v/v) crop oil concentrate.
(§6) For treatments comprised of technical compounds, weighed amounts can be placed individually in 25 mL glass vials and dissolved in a volume of 97:3 v/v acetone/DMSO to obtain 12× stock solutions. […] Application solutions can be prepared by adding an appropriate amount of each stock solution (e.g., 1 mL) and diluted to the appropriate final concentrations with the addition of 10 mL of an aqueous mixture of 1.5% (v/v) crop oil concentrate so that the final spray solutions contain 1.25% (v/v) crop oil concentrate. When technical materials are used, the concentrated stock solutions can be added to the spray solutions so that the final acetone and DMSO concentrations of the application solutions are 16.2% and 0.5%, respectively.
(§7) For treatments comprised of formulated and technical compounds, weighed amounts of the technical materials were placed individually in 25 mL glass vials and dissolved in a volume of 97:3 v/v acetone/DMSO to obtain 12× stock solutions, and measured amounts of the formulated compounds were placed individually in 25 mL glass vials and diluted in a volume of 1.5% (v/v) crop oil concentrate or water to obtain 12× stock solutions. […]

DIGSA = experiment: as above; type: in vivo, Digitaria sanguinalis (L.) Scop.; conditions: Compound A n-Butyl Ester 16 gae/ha
Source text: as §1, §2, §3, §4
For treatments comprised of formulated compounds, measured amounts of compounds were placed individually in 25 mL glass vials and diluted in a volume of 1.25% (v/v) Agri-Dex® crop oil concentrated to obtain 12× stock solutions. […]
as §7

CYPRO = experiment: In-water applied, transplanted paddy rice weeds (Example II); type: in vivo, Cyperus rotundus L.; conditions: Imazapyr IPA 70 gae/ha
Method: Weed seeds or nutlets of the desired test plant species were planted in puddled soil (mud) prepared by mixing a shredded, non-sterilized mineral soil (50.5 percent silt, 25.5 percent clay, and 24 percent sand, with a pH of about 7.6 and an organic matter content of about 2.9 percent) and water at a 1:1 volumetric ratio. The prepared mud was dispensed in 365 mL aliquots into 16-ounce (oz.) non-perforated plastic pots with a surface area of 86.59 square centimeters (cm^2) leaving a headspace of 3 centimeters (cm) in each pot. Mud was allowed to dry overnight prior to planting or transplanting. Rice seeds were planted in Sun Gro MetroMix® 306 planting mixture, which typically has a pH of about 6.0 to about 6.8 and an organic matter content of about 30 percent, in plastic plug trays. Seedlings at the second or third leaf stage of growth were transplanted into 860 mL of mud contained in 32-oz. non-perforated plastic pots with a surface area of 86.59 cm^2 4 days prior to herbicide application. The paddy was created by filling the headspace of the pots with 2.5 to 3 cm of water. When required to ensure good germination and healthy plants, a fungicide treatment and/or other chemical or physical treatment was applied. The plants were grown for 4-22 days in a greenhouse with an approximate 14 h photoperiod which was maintained at about 29° C. during the day and about 26° C. during the night. Nutrients were added as Osmocote® (19:6:12, N:P:K+minor nutrients) at 2 g per 16-oz. pot and 4 g per 32-oz. pot. […]
(§8) Treatment requirements for each compound or herbicidal component were calculated based upon the rates being tested, the concentration of active ingredient or acid equivalent in the formulation, an application volume of 2 mL per component per pot, and an application area of 86.59 cm^2 per pot.
For formulated compounds, a measured amount was placed in an individual 100 or 200 mL glass vial and was dissolved in a volume of 1.25% (v/v) Agri-Dex® crop oil concentrate to obtain application solutions. […]

ECHOR = experiment: as above; type: in vivo, Echinochloa oryzoides (Ard.) Fritsch
Method: Weed seeds or nutlets of the desired test plant species were planted in puddled soil (mud) prepared by mixing a shredded, non-sterilized mineral soil (50.5 percent silt, 25.5 percent clay, and 24 percent sand, with a pH of about 7.6 and an organic matter content of about 2.9 percent) and water at a 1:1 volumetric ratio. The prepared mud was dispensed in 365 mL aliquots into 16-ounce (oz.) non-perforated plastic pots with a surface area of 86.59 square centimeters (cm^2) leaving a headspace of 3 centimeters (cm) in each pot. Mud was allowed to dry overnight prior to planting or transplanting. Rice seeds were planted in Sun Gro MetroMix® 306 planting mixture, which typically has a pH of about 6.0 to about 6.8 and an organic matter content of about 30 percent, in plastic plug trays. Seedlings at the second or third leaf stage of growth were transplanted into 860 mL of mud contained in 32-oz. non-perforated plastic pots with a surface area of 86.59 cm^2 4 days prior to herbicide application. The paddy was created by filling the headspace of the pots with 2.5 to 3 cm of water. When required to ensure good germination and healthy plants, a fungicide treatment and/or other chemical or physical treatment was applied. The plants were grown for 4-22 days in a greenhouse with an approximate 14 h photoperiod which was maintained at about 29° C. during the day and about 26° C. during the night. Nutrients were added as Osmocote® (19:6:12, N:P:K+minor nutrients) at 2 g per 16-oz. pot and 4 g per 32-oz. pot. Water was added on a regular basis to maintain the paddy flood, and supplemental lighting was provided with overhead metal halide 1000-Watt lamps as necessary. The plants were employed for testing when they reached the first through fourth true leaf stage.
Treatments consisted of the acid or esters of 4-amino-3-chloro-5-fluoro-6-(4-chloro-2-fluoro-3-methoxy-phenyl)pyridine-2-carboxylic acid (compound A) each formulated as an SC and various herbicidal components alone and in combination. Forms of compound A were applied on an acid equivalent basis.
as §3, with “included the” for “include”, “(ALS)-inhibiting imidazolinone” for “(ALS)-inhibiting”, “herbicides” for “herbicides (imidazolinone chemical class)”, “material),” for “material)”, “Scepter®.” for “Scepter®/Imagine®.”
as §8
For formulated compounds, a measured amount was placed in an individual 100 or 200 mL glass vial and was dissolved in a volume of 1.25% (v/v) Agri-Dex® crop oil concentrate to obtain application solutions.
For technical grade compounds, a weighed amount was placed in an individual 100 to 200 mL glass vial and was dissolved in a volume of acetone to obtain concentrated stock solutions. […] The concentrated stock solutions obtained were diluted with an equivalent volume of an aqueous mixture containing 2.5% (v/v) crop oil concentrate so that the final application solutions contained 1.25% (v/v) crop oil concentrate.
Applications were made by injecting with a pipetter appropriate amounts of the application solutions, individually and sequentially, into the aqueous layer of the paddy. Control plants were treated in the same manner with the solvent blank. Applications were made so that all treated plant material received the same concentrations of acetone and crop oil concentrate.
The treated plants and control plants were placed in a greenhouse as described above and water was added as needed to maintain a paddy flood. […]

CIRAR = experiment: Postemergence herbicidal activity in cereal crops, greenhouse (Example V); type: in vivo, Cirsium arvense (L.) Scop.; conditions: Imazamethabenz-methyl 200 gai/ha
Method: (§9) Seeds of the desired test plant species were planted in Sun Gro MetroMix® 306 planting mixture, which typically has a pH of 6.0 to 6.8 and an organic matter content of about 30 percent, in plastic pots with a surface area of 103.2 square centimeters (cm^2). When required to ensure good germination and healthy plants, a fungicide treatment and/or other chemical or physical treatment was applied. The plants were grown for 7-36 days in a greenhouse with an approximate 14 hour photoperiod which was maintained at about 18° C. during the day and about 17° C. during the night. Nutrients and water were added on a regular basis and supplemental lighting was provided with overhead metal halide 1000-Watt lamps as necessary. The plants were employed for testing when they reached the second or third true leaf stage.
(§10) Treatments consisted of the benzyl ester of 4-amino-3-chloro-5-fluoro-6-(4-chloro-2-fluoro-3-methoxy-phenyl)pyridine-2-carboxylic acid (Compound A), formulated as an SC, a second cereal herbicide alone and then both in combination.
(§11) Other herbicidal components were applied on an acid equivalent basis and include acetolactate synthase (ALS)-inhibiting herbicides (imidazolinone chemical class) imazamethabenz-methyl formulated as Assert®. Spray solutions of the second cereal herbicide and experimental compound mixtures were prepared by adding the stock solutions to the appropriate amount of dilution solution to form 12 mL spray solution with active ingredients in two- and three-way combinations. […]
(§12) The treated plants and control plants were placed in a greenhouse as described above and watered by sub-irrigation to prevent wash-off of the test compounds. After 20-22 days, the condition of the test plants as compared with that of the control plants was determined visually and scored on a scale of 0 to 100 percent where 0 corresponds to no injury and 100 corresponds to complete kill. […]

SINAR = experiment: as above; type: in vivo, Sinapis arvensis L.; conditions: Imazamethabenz-methyl 200 gai/ha
Method: as §9, §10, §11, §12

SASKR = experiment: as above; type: in vivo, Salsola iberica L.; conditions: Imazamethabenz-methyl 200 gai/ha
Method: as §9, §10, §11, §12

CHEAL = experiment: as above; type: in vivo, Chenopodium album L.; conditions: Imazamethabenz-methyl 200 gai/ha
Method: as §9, §10, §11, §12

CYPIR = experiment: Postemergence foliar-applied, direct seeded rice weeds (Example I); type: in vivo, Cyperus iria L.
Source text: as §1, §2, §3, §4, §5, §6, §7

PAPRH = experiment: Postemergence herbicidal activity in cereal crops, greenhouse (Example V); type: in vivo, Papaver rhoeas L.; conditions: Imazamethabenz-methyl 200 gai/ha
Method: as §9, §10, §11, §12

VERPE = experiment: as above; type: in vivo, Veronica persica Poir.; conditions: Imazamethabenz-methyl 200 gai/ha
Method: as §9, §10, §11, §12

CC(C)C1(C)N=C(c2nc3ccccc3cc2C(=O)O)NC1=O (racemic) [Imazaquin IPA, (±)-2-[4,5-dihydro-4-methyl-4-(1-methylethyl)-5-oxo-1H-imidazol-2-yl]-3-quinolinecarboxylic acid with 2-propanamine, reference compound]
Visual Weed Control (%) - 21 DAA IPOHE Obs (IPOHE; Imazaquin IPA 9 gae/ha): 0% | Visual Weed Control (%) - 21 DAA IPOHE Obs (IPOHE; Imazaquin IPA 18 gae/ha): 10% | Visual Weed Control (%) - 21 DAA IPOHE Obs (IPOHE; Imazaquin IPA 36 gae/ha): 0%

CCCCOC(=O)c1nc(-c2ccc(Cl)c(OC)c2F)c(F)c(N)c1Cl [Compound A n-Butyl Ester]
Visual Weed Control (%) - 20 DAA DIGSA Obs (DIGSA): 15%

CC(C)C1(C)N=C(c2ncccc2C(=O)O)NC1=O (stereo not drawn) [Imazapyr IPA, 2-[4,5-dihydro-4-methyl-4-(1-methylethyl)-5-oxo-1H-imidazol-2-yl]-3-pyridinecarboxylic acid compound with 2-propanamine, reference compound]
Visual Weed Control (%) - 22 DAA CYPRO Obs (CYPRO): 70% | Visual Weed Control (%) - 21 DAA IPOHE Obs (IPOHE; Imazapyr IPA 4.38 gae/ha): 50% | Visual Weed Control (%) - 21 DAA IPOHE Obs (IPOHE; Imazapyr IPA 8.75 gae/ha): 40% | Visual Weed Control (%) - 22 DAA ECHOR Obs (ECHOR; Imazapyr IPA 70 gae/ha): 50% | Visual Weed Control (%) - 22 DAA ECHOR Obs (ECHOR; Imazapyr IPA 140 gae/ha): 85%

methyl 2-[4,5-dihydro-4-methyl-4-(1-methylethyl)-5-oxo-1H-imidazol-2-yl]-4-methylbenzoic acid or methyl 2-[4,5-dihydro-4-methyl-4-(1-methylethyl)-5-oxo-1H-imidazol-2-yl]-5-methylbenzoic acid or mixtures thereof [Imazamethabenz-methyl, reference compound]
Visual Weed Control (%) - 21 DAA CIRAR Obs (CIRAR): 0% | Visual Weed Control (%) - 21 DAA SINAR Obs (SINAR): 70% | Visual Weed Control (%) - 21 DAA SASKR Obs (SASKR): 70% | Visual Weed Control (%) - 21 DAA CHEAL Obs (CHEAL): 0% | Visual Weed Control (%) - 22 DAA CYPIR Obs (CYPIR; Imazamethabenz-methyl 43.75 gai/ha): 0% | Visual Weed Control (%) - 22 DAA CYPIR Obs (CYPIR; Imazamethabenz-methyl 87.5 gai/ha): 20% | Visual Weed Control (%) - 22 DAA CYPIR Obs (CYPIR; Imazamethabenz-methyl 175 gai/ha): 25% | Visual Weed Control (%) - 21 DAA PAPRH Obs (PAPRH): 0% | Visual Weed Control (%) - 21 DAA VERPE Obs (VERPE): 0%
